Reference: patent US11959083B2, “Immunosuppression-reverting oligonucleotides inhibiting the expression of CD39” (Secarna Pharmaceuticals GmbH & Co. KG, priority 2016, dated 2024)
l = locked nucleic acid (LNA); d = 2'-deoxy (DNA)

What was measured:
Format in all cases: cell-based, human
hCD39 mRNA [1] = experiment: hCD39 mRNA knockdown efficacy screen in A-172 cells (single dose, gymnotic delivery, QuantiGene Singleplex); settings: 10 μM, 3 days; for Mean hCD39 mRNA expression (relative to untreated cells set as 1): first screening round; for Mean hCD39 mRNA expression (relative to untreated cells set as 1) / Relative hCD39 mRNA expression (compared to non-treated cells): normalized to HPRT1; for Relative hCD39 mRNA expression (compared to non-treated cells): second screening round; for Residual hCD39 mRNA expression relative to untreated cells (set as 1): third screening round
Outline: (§1)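 Antisense oligonucleotides given once at 10 μM without transfection reagent (gymnotic) to HDLM-2 or A-172 cells for 3 days. hCD39 mRNA measured by QuantiGene Singleplex, normalized to HPRT1 and expressed relative to untreated cells; triplicate means.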

hCD39 mRNA [2] = experiment: hCD39 mRNA knockdown efficacy screen in HDLM-2 cells (single dose, gymnotic delivery, QuantiGene Singleplex); parameters: key to Relative hCD39 mRNA expression (compared to non-treated cells): *: values are below detection limit; settings: 10 μM, 3 days; for Mean hCD39 mRNA expression normalized to HPRT1 relative to untreated control = 1: first screening round; for Relative hCD39 mRNA expression (compared to non-treated cells): second screening round, normalized to HPRT1; for Residual hCD39 mRNA expression relative to untreated cells (set as 1): third screening round
Outline: as §1

hCD39 mRNA [3] = experiment: IC50 determination / concentration-dependent hCD39 mRNA knockdown in HDLM-2 cells; settings: for mRNA inhibition: HDLM-2, 3 days; for IC50: HDLM-2 cells, hCD39 mRNA, 3 days
Procedure: HDLM-2 cells were treated for 3 days with the indicated concentration of the respective antisense oligonucleotide. Residual hCD39 expression is depicted compared to untreated control cells. hCD39 mRNA expression values were normalized to expression of the housekeeping gene HPRT1.
The antisense oligonucleotide A04040H (SEQ ID No. 3) that had shown potent activity in the first and second screening round was used as reference. HDLM-2 cells treated for 3 days with the indicated concentrations of the respective antisense oligonucleotide. hCD39 mRNA expression values were normalized to expression of the housekeeping gene HPRT1. Residual hCD39 mRNA expression relative to untreated cells (set as 100) is depicted. Depicted is the mean of triplicate wells+/−SD.
In a second experiment the concentration-dependency of effects and the IC50 values of hCD39 antisense oligonucleotides A04010H (SEQ ID No.14), A04016H (SEQ ID No.20), A04017H (SEQ ID No.21), A04020H (SEQ ID No. 24) and A04026H (SEQ ID No.30) were tested. […] HDLM-2 cells were treated with titrated amounts of the respective antisense oligonucleotide (concentrations: 10 μM, 3.3 μM, 1.1 μM, 370 nM, 120 nM, 41 nM, 14 nM, 4.5 nM). hCD39 mRNA expression was analyzed after three days of treatment. FIG. 5 and Table 9 depicts the concentration-dependent reduction of hCD39 mRNA expression by the selected hCD39 antisense oligonucleotides.
The hCD39 antisense oligonucleotides A04051H (SEQ ID No.88), A04052H (SEQ ID No.89), A04053H ([…]), A04056H (SEQ ID No.92), A04059H (SEQ ID No.94), A04060H (SEQ ID No.95), and A04061H (SEQ ID No.96) had shown potent single-dose activity in both HDLM-2 and A-172 cells. […] The antisense oligonucleotide A04040H that had shown potent activity in the first screening round was used as reference. hCD39 mRNA expression was analyzed after 3 days of treatment. FIG. 7 depicts the concentration-dependent reduction of hCD39 expression by hCD39 antisense oligonucleotides.

[4] = first screening round (Table 8)
[5] = second screening round (Table 9)
[6] = third screening round (Table 12)

Row | Substance | Mean hCD39 mRNA expression (relative to untreated cells set as 1) (hCD39 mRNA [1]) | Relative hCD39 mRNA expression (compared to non-treated cells) (hCD39 mRNA [1]) | Residual hCD39 mRNA expression relative to untreated cells (set as 1) (hCD39 mRNA [1]) | Mean hCD39 mRNA expression normalized to HPRT1 relative to untreated control = 1 (hCD39 mRNA [2]) | Relative hCD39 mRNA expression (compared to non-treated cells) (hCD39 mRNA [2]) | Residual hCD39 mRNA expression relative to untreated cells (set as 1) (hCD39 mRNA [2]) | mRNA inhibition (hCD39 mRNA [3]; 0.0045 μM, Table 8) | mRNA inhibition (hCD39 mRNA [3]; 0.0045 μM, Table 9) | mRNA inhibition (hCD39 mRNA [3]; 0.013 μM, Table 8) | mRNA inhibition (hCD39 mRNA [3]; 0.013 μM, Table 9) | mRNA inhibition (hCD39 mRNA [3]; 0.04 μM, Table 8) | mRNA inhibition (hCD39 mRNA [3]; 0.04 μM, Table 9) | mRNA inhibition (hCD39 mRNA [3]; 0.12 μM, Table 8) | mRNA inhibition (hCD39 mRNA [3]; 4 nM, Table 12) | mRNA inhibition (hCD39 mRNA [3]; 12 nM, Table 12) | mRNA inhibition (hCD39 mRNA [3]; 40 nM, Table 12) | mRNA inhibition (hCD39 mRNA [3]; 110 nM, Table 12) | mRNA inhibition (hCD39 mRNA [3]; 330 nM, Table 12) | mRNA inhibition (hCD39 mRNA [3]; 1000 nM, Table 12) | IC50 (hCD39 mRNA [3]; [6]) | other results
1 | +G*+T*+A*A*G*C*C*C*T*G*A*T*+G*+T*+T (antisense GTAAGCCCTGATGTT; sugars from the 5' end l3 d9 l3, all phosphorothioate, methylation of C not given here) [A04019H] | 0.03 | 0.03 | 0.00 | 0.08 | 0.08 | 0.01 | −11.65% | 22.53% | 8.19% | 49.52% | 38.76% | 62.95% | 69.42% |  |  |  |  |  |  |  | mRNA inhibition (hCD39 mRNA [3]; 0.12 μM, Table 9): 82.63%; mRNA inhibition (hCD39 mRNA [3]; 0.4 μM, Table 8): 88.83%; mRNA inhibition (hCD39 mRNA [3]; 0.4 μM, Table 9): 93.96%; mRNA inhibition (hCD39 mRNA [3]; 1.1 μM, Table 8): 95.46%; mRNA inhibition (hCD39 mRNA [3]; 1.1 μM, Table 9): 97.94%; mRNA inhibition (hCD39 mRNA [3]; 3.3 μM, Table 8): 97.89%; mRNA inhibition (hCD39 mRNA [3]; 3.3 μM, Table 9): 99.04%; mRNA inhibition (hCD39 mRNA [3]; 10 μM, Table 8): 98.39%; mRNA inhibition (hCD39 mRNA [3]; 10 μM, Table 9): 99.00%; IC50 (hCD39 mRNA [3]; [4]): 40 nM; IC50 (hCD39 mRNA [3]; [5]): 11.6 nM
2 | +G*+T*+T*T*G*T*G*T*G*A*G*A*G*C*+T (antisense GTTTGTGTGAGAGCT; sugars from the 5' end l3 d11 l1, all phosphorothioate, methylation of C not given here) [A04061H] |  |  | 0.10 |  |  | 0.01 |  |  |  |  |  |  |  | 0.00% | 0.00% | 19.90% | 69.28% | 92.28% | 97.43% | 66.8 nM | 
3 | +G*+T*+T*T*G*T*G*T*G*A*G*A*G*C*+T*+T*+T (antisense GTTTGTGTGAGAGCTTT; sugars from the 5' end l3 d11 l3, all phosphorothioate, methylation of C not given here) [A04056H] |  |  | 0.09 |  |  | 0.01 |  |  |  |  |  |  |  | 13.97% | 37.12% | 69.95% | 91.83% | 97.52% | 98.49% | 20.2 nM | 
4 | +G*G*+A*C*A*A*T*G*G*T*T*G*+C*+T*+C (antisense GGACAATGGTTGCTC; sugars from the 5' end l1 d1 l1 d9 l3, all phosphorothioate, methylation of C not given here) [A04016H] | 0.09 | 0.09 |  | 0.10 | 0.10 |  |  | 18.41% |  | 42.19% |  | 62.31% |  |  |  |  |  |  |  |  | mRNA inhibition (hCD39 mRNA [3]; 0.12 μM, Table 9): 77.61%; mRNA inhibition (hCD39 mRNA [3]; 0.4 μM, Table 9): 90.51%; mRNA inhibition (hCD39 mRNA [3]; 1.1 μM, Table 9): 96.67%; mRNA inhibition (hCD39 mRNA [3]; 3.3 μM, Table 9): 98.38%; mRNA inhibition (hCD39 mRNA [3]; 10 μM, Table 9): 98.94%; IC50 (hCD39 mRNA [3]; [5]): 12.8 nM
5 | +T*+A*+C*G*T*T*C*A*C*T*A*C*C*T*+T*+C*+T (antisense TACGTTCACTACCTTCT; sugars from the 5' end l3 d11 l3, all phosphorothioate, methylation of C not given here) [A04052H] |  |  | 0.25 |  |  | 0.00 |  |  |  |  |  |  |  | 9.03% | 31.25% | 49.21% | 75.30% | 88.35% | 94.72% | 54 nM | mRNA inhibition (hCD39 mRNA [3]; 0.45 nM, Table 12): 24.52%; mRNA inhibition (hCD39 mRNA [3]; 1.3 nM, Table 12): 25.80%
6 | +T*+A*+C*G*T*T*C*A*C*T*A*C*C*T*+T*C*+T (antisense TACGTTCACTACCTTCT; sugars from the 5' end l3 d11 l1 d1 l1, all phosphorothioate, methylation of C not given here) [A04053H] |  |  | 0.31 |  |  | 0.01 |  |  |  |  |  |  |  | 9.81% | 26.67% | 37.75% | 66.64% | 85.19% | 92.69% | 67.6 nM | mRNA inhibition (hCD39 mRNA [3]; 0.45 nM, Table 12): 2.07%; mRNA inhibition (hCD39 mRNA [3]; 1.3 nM, Table 12): 17.51%
7 | +T*+A*+T*G*G*T*A*C*A*G*T*+T*G*+G*+T (antisense TATGGTACAGTTGGT; sugars from the 5' end l3 d8 l1 d1 l2, all phosphorothioate, methylation of C not given here) [A04020H] | 0.03 | 0.04 |  | 0.08 | 0.08 |  |  | 23.58% |  | 68.27% |  | 94.26% |  |  |  |  |  |  |  |  | mRNA inhibition (hCD39 mRNA [3]; 0.12 μM, Table 9): 98.89%; mRNA inhibition (hCD39 mRNA [3]; 0.4 μM, Table 9): 99.42%; mRNA inhibition (hCD39 mRNA [3]; 1.1 μM, Table 9): 99.61%; mRNA inhibition (hCD39 mRNA [3]; 3.3 μM, Table 9): 99.55%; mRNA inhibition (hCD39 mRNA [3]; 10 μM, Table 9): 99.41%; IC50 (hCD39 mRNA [3]; [5]): 10.1 nM
8 | +T*+G*+C*C*A*G*A*G*T*G*C*C*T*G*+A*+T*+C (antisense TGCCAGAGTGCCTGATC; sugars from the 5' end l3 d11 l3, all phosphorothioate, methylation of C not given here) [A04042H] | 0.37 | 0.19 | 0.00 | 0.10 | * | 0.09 | −20.02% |  | −2.65% |  | 22.51% |  | 32.44% |  |  |  |  |  |  |  | mRNA inhibition (hCD39 mRNA [3]; 0.4 μM, Table 8): 58.07%; mRNA inhibition (hCD39 mRNA [3]; 1.1 μM, Table 8): 76.38%; mRNA inhibition (hCD39 mRNA [3]; 3.3 μM, Table 8): 87.12%; mRNA inhibition (hCD39 mRNA [3]; 10 μM, Table 8): 95.87%; IC50 (hCD39 mRNA [3]; [4]): 60.9 nM
9 | +T*+T*+A*C*G*T*T*C*A*C*T*A*C*C*+T*+T*+C (antisense TTACGTTCACTACCTTC; sugars from the 5' end l3 d11 l3, all phosphorothioate, methylation of C not given here) [A04044H] | 0.07 | 0.04 |  | 0.05 | * |  | 12.17% |  | 26.25% |  | 45.88% |  | 68.28% |  |  |  |  |  |  |  | mRNA inhibition (hCD39 mRNA [3]; 0.4 μM, Table 8): 82.63%; mRNA inhibition (hCD39 mRNA [3]; 1.1 μM, Table 8): 91.19%; mRNA inhibition (hCD39 mRNA [3]; 3.3 μM, Table 8): 96.20%; mRNA inhibition (hCD39 mRNA [3]; 10 μM, Table 8): 98.71%; IC50 (hCD39 mRNA [3]; [4]): 46.3 nM
